Assay results published in the kinase profiling compilation of Christmann-Franck et al. (2016).

Assays:
Test in all cases: radiometric filter-binding kinase assay, Kinase HotSpot
Details in all cases: compound 0.5 µM; ATP 10 µM
PKN1 (human) = PKN1 (human) (UniProt Q16512)
CSNK1G3 (human) = CSNK1G3 (human) (UniProt Q9Y6M4)
MAPK9 (human) = MAPK9 (human) (UniProt P45984)
RIPK2 (human) = RIPK2 (human) (UniProt O43353)
CDK7 CCNH MNAT1 (human) = CDK7 CCNH MNAT1 (human) (UniProt P50613+P51948+P51946)
RPS6KA4 KD2 (human) = RPS6KA4 KD2 (human) (UniProt O75676)
MAP3K10 (human) = MAP3K10 (human) (UniProt Q02779)
PIM1 (human) = PIM1 (human) (UniProt P11309)
MAP3K9 (human) = MAP3K9 (human) (UniProt P80192)
MAP3K9 (human), sequence (P80192 whole entry, looked up): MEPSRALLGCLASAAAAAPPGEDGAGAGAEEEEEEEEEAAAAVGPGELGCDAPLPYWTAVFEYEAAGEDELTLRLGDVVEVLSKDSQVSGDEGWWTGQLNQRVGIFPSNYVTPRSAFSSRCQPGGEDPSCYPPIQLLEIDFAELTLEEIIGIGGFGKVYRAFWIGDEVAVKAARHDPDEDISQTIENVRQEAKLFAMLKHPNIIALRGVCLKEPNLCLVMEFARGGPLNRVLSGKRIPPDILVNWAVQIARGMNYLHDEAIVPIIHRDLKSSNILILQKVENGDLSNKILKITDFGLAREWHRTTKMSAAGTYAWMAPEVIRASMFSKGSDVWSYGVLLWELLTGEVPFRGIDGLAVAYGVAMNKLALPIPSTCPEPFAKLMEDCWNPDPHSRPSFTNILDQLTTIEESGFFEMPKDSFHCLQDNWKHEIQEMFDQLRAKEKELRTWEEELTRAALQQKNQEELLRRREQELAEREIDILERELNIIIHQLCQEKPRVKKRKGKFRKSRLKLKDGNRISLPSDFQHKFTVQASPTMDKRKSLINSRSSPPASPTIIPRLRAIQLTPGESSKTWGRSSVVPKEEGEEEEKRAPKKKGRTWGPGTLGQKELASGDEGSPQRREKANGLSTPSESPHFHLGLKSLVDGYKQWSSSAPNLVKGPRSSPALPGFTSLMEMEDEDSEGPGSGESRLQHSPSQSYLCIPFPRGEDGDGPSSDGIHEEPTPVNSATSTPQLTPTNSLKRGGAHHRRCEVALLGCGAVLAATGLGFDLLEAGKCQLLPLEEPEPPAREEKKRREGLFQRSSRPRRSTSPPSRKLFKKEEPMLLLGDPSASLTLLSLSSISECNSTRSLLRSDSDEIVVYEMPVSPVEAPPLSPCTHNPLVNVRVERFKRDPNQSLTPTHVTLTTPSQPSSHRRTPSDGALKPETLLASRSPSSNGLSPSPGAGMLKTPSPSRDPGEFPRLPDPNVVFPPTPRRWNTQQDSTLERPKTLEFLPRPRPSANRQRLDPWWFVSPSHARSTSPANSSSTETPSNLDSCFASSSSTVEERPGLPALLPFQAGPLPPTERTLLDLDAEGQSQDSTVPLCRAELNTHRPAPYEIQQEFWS

SRC (human) = SRC (human) (UniProt P12931)
SRC (human), sequence (P12931 whole entry, looked up): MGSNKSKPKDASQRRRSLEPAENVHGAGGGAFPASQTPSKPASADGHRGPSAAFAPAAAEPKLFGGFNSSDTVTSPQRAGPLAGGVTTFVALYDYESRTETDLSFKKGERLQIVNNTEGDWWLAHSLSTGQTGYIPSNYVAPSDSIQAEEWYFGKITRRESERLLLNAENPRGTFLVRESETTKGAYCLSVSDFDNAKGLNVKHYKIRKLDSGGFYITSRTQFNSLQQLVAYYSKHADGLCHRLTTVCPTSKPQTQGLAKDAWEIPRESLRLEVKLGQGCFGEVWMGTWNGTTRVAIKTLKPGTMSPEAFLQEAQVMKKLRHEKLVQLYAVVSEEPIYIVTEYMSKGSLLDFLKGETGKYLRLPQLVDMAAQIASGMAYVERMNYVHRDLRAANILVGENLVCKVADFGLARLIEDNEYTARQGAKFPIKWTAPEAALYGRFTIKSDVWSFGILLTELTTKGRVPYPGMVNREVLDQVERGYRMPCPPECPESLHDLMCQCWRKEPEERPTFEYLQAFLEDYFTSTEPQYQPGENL

[1] = tested on: MKNK1 (human), Q9BUB5 [T385D; 165-205 del]
[2] = target: TYK2 JH1 catalytic (human) (UniProt P29597)
TYK2 JH1 catalytic (human), sequence (P29597 whole entry, looked up): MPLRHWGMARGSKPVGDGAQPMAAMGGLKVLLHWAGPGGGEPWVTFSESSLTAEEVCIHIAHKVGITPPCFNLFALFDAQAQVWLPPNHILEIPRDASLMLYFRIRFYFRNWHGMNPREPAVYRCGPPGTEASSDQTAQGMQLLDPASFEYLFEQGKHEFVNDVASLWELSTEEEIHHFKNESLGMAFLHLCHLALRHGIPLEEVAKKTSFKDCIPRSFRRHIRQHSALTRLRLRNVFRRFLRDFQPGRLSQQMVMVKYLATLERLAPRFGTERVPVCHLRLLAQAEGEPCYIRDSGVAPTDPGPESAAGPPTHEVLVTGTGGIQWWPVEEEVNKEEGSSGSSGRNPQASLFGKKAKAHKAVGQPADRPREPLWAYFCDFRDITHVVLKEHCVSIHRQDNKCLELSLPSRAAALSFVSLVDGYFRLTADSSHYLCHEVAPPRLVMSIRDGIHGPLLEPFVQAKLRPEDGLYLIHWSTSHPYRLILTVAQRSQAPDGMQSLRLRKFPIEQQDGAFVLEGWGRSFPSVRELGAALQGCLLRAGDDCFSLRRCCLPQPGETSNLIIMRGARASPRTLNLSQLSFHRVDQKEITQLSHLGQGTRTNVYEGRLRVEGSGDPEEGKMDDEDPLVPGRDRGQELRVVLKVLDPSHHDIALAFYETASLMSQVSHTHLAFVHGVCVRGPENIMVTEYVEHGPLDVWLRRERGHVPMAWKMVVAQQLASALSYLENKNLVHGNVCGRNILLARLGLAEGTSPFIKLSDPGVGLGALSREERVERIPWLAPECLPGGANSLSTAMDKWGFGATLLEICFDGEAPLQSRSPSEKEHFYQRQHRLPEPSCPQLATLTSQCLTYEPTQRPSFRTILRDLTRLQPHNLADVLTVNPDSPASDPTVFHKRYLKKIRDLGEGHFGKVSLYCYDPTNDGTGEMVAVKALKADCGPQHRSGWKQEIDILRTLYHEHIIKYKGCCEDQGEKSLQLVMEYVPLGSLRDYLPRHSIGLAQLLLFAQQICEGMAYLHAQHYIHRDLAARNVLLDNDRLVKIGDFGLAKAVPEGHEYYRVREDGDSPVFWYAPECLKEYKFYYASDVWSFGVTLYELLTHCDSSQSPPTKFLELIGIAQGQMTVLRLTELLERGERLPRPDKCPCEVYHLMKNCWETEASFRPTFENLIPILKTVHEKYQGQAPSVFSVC

[3] = tested on: PRKCQ (human), Q04759 [P330L]
INSR (human) = INSR (human) (UniProt P06213)
FGFR4 (human) = FGFR4 (human) (UniProt P22455)
DYRK4 (human) = DYRK4 (human) (UniProt Q9NR20)
HIPK4 (human) = HIPK4 (human) (UniProt Q8NE63)
WNK2 (human) = WNK2 (human) (UniProt Q9Y3S1)
KDR (human) = KDR (human) (UniProt P35968)
EPHB1 (human) = EPHB1 (human) (UniProt P54762)
AKT1 (human) = AKT1 (human) (UniProt P31749)
MERTK (human) = MERTK (human) (UniProt Q12866)
DCLK2 (human) = DCLK2 (human) (UniProt Q8N568)
AURKB (human) = AURKB (human) (UniProt Q96GD4)
CLK2 (human) = CLK2 (human) (UniProt P49760)
GRK5 (human) = GRK5 (human) (UniProt P34947)
FLT3 (human) = FLT3 (human) (UniProt P36888)
INSRR (human) = INSRR (human) (UniProt P14616)
PHKG1 (human) = PHKG1 (human) (UniProt Q16816)
MYLK2 (human) = MYLK2 (human) (UniProt Q9H1R3)
FYN (human) = FYN (human) (UniProt P06241)
CDK4 CCND3 (human) = CDK4 CCND3 (human) (UniProt P30281+P11802)
ROCK2 (human) = ROCK2 (human) (UniProt O75116)
TEC (human) = TEC (human) (UniProt P42680)
DAPK1 (human) = DAPK1 (human) (UniProt P53355)
ERBB4 (human) = ERBB4 (human) (UniProt Q15303)
RPS6KB2 (human) = RPS6KB2 (human) (UniProt Q9UBS0)
BLK (human) = BLK (human) (UniProt P51451)
TSSK2 (human) = TSSK2 (human) (UniProt Q96PF2)
CSNK1E (human) = CSNK1E (human) (UniProt P49674)
MELK (human) = MELK (human) (UniProt Q14680)
STK11 (human) = STK11 (human) (UniProt Q15831)

RIPK2 (human), sequence (O43353 whole entry, looked up): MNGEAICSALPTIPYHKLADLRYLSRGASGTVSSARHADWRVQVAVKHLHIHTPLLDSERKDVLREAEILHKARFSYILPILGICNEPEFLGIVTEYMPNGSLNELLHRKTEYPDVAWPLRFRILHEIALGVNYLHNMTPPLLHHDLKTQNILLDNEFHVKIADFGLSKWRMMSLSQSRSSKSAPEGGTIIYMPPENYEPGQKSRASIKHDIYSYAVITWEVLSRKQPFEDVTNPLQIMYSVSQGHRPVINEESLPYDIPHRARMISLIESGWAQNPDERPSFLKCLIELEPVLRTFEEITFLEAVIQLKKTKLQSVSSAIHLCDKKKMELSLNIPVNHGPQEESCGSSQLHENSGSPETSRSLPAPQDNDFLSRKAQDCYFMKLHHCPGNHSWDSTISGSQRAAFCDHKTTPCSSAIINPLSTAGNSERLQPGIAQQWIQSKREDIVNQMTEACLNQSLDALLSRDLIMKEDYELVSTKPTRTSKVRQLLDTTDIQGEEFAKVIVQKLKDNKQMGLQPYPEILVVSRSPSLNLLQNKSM
CDK7 CCNH MNAT1 (human), sequence (P50613 whole entry, looked up): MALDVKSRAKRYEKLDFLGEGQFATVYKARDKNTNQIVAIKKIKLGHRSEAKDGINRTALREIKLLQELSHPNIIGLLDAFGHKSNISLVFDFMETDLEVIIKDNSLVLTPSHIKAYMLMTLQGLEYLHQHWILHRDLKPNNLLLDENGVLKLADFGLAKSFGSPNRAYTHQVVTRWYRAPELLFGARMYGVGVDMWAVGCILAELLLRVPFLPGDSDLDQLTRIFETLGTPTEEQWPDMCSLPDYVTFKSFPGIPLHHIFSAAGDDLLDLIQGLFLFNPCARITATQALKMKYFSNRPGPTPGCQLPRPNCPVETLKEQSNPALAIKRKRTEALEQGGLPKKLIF
CDK7 CCNH MNAT1 (human), sequence (P51946 whole entry, looked up): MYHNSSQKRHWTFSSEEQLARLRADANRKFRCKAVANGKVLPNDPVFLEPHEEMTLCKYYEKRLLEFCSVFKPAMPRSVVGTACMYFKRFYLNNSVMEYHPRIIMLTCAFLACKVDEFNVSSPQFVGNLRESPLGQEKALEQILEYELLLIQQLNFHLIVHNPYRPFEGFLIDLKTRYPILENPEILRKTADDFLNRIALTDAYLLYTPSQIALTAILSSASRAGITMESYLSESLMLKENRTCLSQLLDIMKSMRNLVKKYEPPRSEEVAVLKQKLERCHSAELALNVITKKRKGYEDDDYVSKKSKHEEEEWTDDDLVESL
CDK7 CCNH MNAT1 (human), sequence (P51948 whole entry, looked up): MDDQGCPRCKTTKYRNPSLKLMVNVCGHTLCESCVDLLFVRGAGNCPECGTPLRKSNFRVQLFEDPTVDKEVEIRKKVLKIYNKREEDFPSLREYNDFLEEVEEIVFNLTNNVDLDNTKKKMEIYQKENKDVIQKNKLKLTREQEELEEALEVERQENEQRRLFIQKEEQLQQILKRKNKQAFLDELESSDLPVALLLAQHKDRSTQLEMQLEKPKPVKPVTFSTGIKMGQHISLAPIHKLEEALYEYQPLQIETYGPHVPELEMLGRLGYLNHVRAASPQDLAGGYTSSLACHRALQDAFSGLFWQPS
CSNK1G3 (human), sequence (Q9Y6M4 whole entry, looked up): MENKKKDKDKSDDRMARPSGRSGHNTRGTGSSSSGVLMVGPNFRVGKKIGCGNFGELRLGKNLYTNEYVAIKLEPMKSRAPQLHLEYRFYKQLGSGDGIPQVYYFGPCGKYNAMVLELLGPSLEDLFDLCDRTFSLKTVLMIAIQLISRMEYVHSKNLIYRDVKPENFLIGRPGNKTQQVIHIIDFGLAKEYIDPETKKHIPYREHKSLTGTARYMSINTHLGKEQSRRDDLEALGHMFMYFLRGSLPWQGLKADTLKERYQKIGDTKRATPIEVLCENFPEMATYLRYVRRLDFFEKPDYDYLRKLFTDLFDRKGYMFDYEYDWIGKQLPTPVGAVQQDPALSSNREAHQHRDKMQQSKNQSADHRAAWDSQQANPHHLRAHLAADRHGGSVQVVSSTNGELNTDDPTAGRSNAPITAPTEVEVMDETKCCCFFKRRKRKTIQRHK

O=C1c2ccccc2-c2nc3nnnn3nc21
residual activity (PKN1 (human)): 97.5%
residual activity (CSNK1G3 (human)): 80.3%
residual activity (MAPK9 (human)): 51.9%
residual activity (RIPK2 (human)): 101%
residual activity (CDK7 CCNH MNAT1 (human)): 94.1%
residual activity (RPS6KA4 KD2 (human)): 72.2%
residual activity (MAP3K10 (human)): 94.6%
residual activity (PIM1 (human)): 94.1%
residual activity (MAP3K9 (human)): 63.3%
residual activity (SRC (human)): 80.4%
residual activity [1]: 79.3%
residual activity [2]: 77.2%
residual activity [3]: 83%
residual activity (INSR (human)): 32.3%
residual activity (FGFR4 (human)): 58%
residual activity (DYRK4 (human)): 88.5%
residual activity (HIPK4 (human)): 97.9%
residual activity (WNK2 (human)): 143%
residual activity (KDR (human)): 1.95%
residual activity (EPHB1 (human)): 89.5%
residual activity (AKT1 (human)): 79.7%
residual activity (MERTK (human)): 93.1%
residual activity (DCLK2 (human)): 86.5%
residual activity (AURKB (human)): 84.7%
residual activity (CLK2 (human)): 92.1%
residual activity (GRK5 (human)): 74.3%
residual activity (FLT3 (human)): 100%
residual activity (INSRR (human)): 86.7%
residual activity (PHKG1 (human)): 92.5%
residual activity (MYLK2 (human)): 88.1%
residual activity (FYN (human)): 76.2%
residual activity (CDK4 CCND3 (human)): 68.1%
residual activity (ROCK2 (human)): 81.7%
residual activity (TEC (human)): 2.44%
residual activity (DAPK1 (human)): 92.2%
residual activity (ERBB4 (human)): 50.2%
residual activity (RPS6KB2 (human)): 86.3%
residual activity (BLK (human)): 109%
residual activity (TSSK2 (human)): 75%
residual activity (CSNK1E (human)): 80.6%
residual activity (MELK (human)): 55.7%
residual activity (STK11 (human)): 99.1%

Cc1nc(-c2ccccc2)c(-c2ccncc2)o1
residual activity (PKN1 (human)): 101%
residual activity (CSNK1G3 (human)): 104%
residual activity (MAPK9 (human)): 98.2%
residual activity (RIPK2 (human)): 87.4%
residual activity (CDK7 CCNH MNAT1 (human)): 109%
residual activity (RPS6KA4 KD2 (human)): 93.7%
residual activity (MAP3K10 (human)): 101%
residual activity (PIM1 (human)): 105%
residual activity (MAP3K9 (human)): 79.4%
residual activity (SRC (human)): 96.2%
residual activity [1]: 123%
residual activity [2]: 109%
residual activity [3]: 120%
residual activity (INSR (human)): 85.6%
residual activity (FGFR4 (human)): 76.5%
residual activity (DYRK4 (human)): 91.2%
residual activity (HIPK4 (human)): 102%
residual activity (WNK2 (human)): 101%
residual activity (KDR (human)): 85.2%
residual activity (EPHB1 (human)): 107%
residual activity (AKT1 (human)): 102%
residual activity (MERTK (human)): 85.6%
residual activity (DCLK2 (human)): 97%
residual activity (AURKB (human)): 97.3%
residual activity (CLK2 (human)): 98.2%
residual activity (GRK5 (human)): 104%
residual activity (FLT3 (human)): 95.2%
residual activity (INSRR (human)): 101%
residual activity (PHKG1 (human)): 96.1%
residual activity (MYLK2 (human)): 100%
residual activity (FYN (human)): 99.8%
residual activity (CDK4 CCND3 (human)): 107%
residual activity (ROCK2 (human)): 97.6%
residual activity (TEC (human)): 127%
residual activity (DAPK1 (human)): 124%
residual activity (ERBB4 (human)): 92.2%
residual activity (RPS6KB2 (human)): 96%
residual activity (BLK (human)): 95.4%
residual activity (TSSK2 (human)): 90.1%
residual activity (CSNK1E (human)): 69.9%
residual activity (MELK (human)): 105%
residual activity (STK11 (human)): 98.4%

COc1ccc(S(=O)(=O)N(CCO)c2ccccc2CN(C)C/C=C/c2ccc(Cl)cc2)cc1
residual activity (PKN1 (human)): 110%
residual activity (CSNK1G3 (human)): 98.3%
residual activity (MAPK9 (human)): 85.5%
residual activity (RIPK2 (human)): 87%
residual activity (CDK7 CCNH MNAT1 (human)): 97.6%
residual activity (RPS6KA4 KD2 (human)): 107%
residual activity (MAP3K10 (human)): 92.4%
residual activity (PIM1 (human)): 104%
residual activity (MAP3K9 (human)): 102%
residual activity (SRC (human)): 92.7%
residual activity [1]: 103%
residual activity [2]: 110%
residual activity [3]: 110%
residual activity (INSR (human)): 103%
residual activity (FGFR4 (human)): 98.3%
residual activity (DYRK4 (human)): 99.6%
residual activity (HIPK4 (human)): 101%
residual activity (WNK2 (human)): 97.1%
residual activity (KDR (human)): 101%
residual activity (EPHB1 (human)): 93.3%
residual activity (AKT1 (human)): 106%
residual activity (MERTK (human)): 97%
residual activity (DCLK2 (human)): 99.1%
residual activity (AURKB (human)): 106%
residual activity (CLK2 (human)): 96.7%
residual activity (GRK5 (human)): 94.1%
residual activity (FLT3 (human)): 98.4%
residual activity (INSRR (human)): 97%
residual activity (PHKG1 (human)): 95.4%
residual activity (MYLK2 (human)): 97.8%
residual activity (FYN (human)): 103%
residual activity (CDK4 CCND3 (human)): 94.1%
residual activity (ROCK2 (human)): 94.6%
residual activity (TEC (human)): 101%
residual activity (DAPK1 (human)): 120%
residual activity (ERBB4 (human)): 104%
residual activity (RPS6KB2 (human)): 97.1%
residual activity (BLK (human)): 103%
residual activity (TSSK2 (human)): 107%
residual activity (CSNK1E (human)): 105%
residual activity (MELK (human)): 99.4%
residual activity (STK11 (human)): 97.7%
